Experimental data from US10822448B2, “Dynamic urea bonds with fast hydrolytic kinetics for polymers” (THE BOARD OF TRUSTEES OF THE UNIVERSITY OF ILLINOIS, priority 2016, dated 2020).
Read-outs that look alike come from different tables or passages of the source.

Key:
[1] = Dissociation constant k−1 of hindered ureas by amine exchange experiment (1H NMR, d-chloroform); type: physicochemical; settings: room temperature
Method: (§1) We designed a set of aryl ureas with distinguished electronic effect on the conjugated phenyl ring (Table 1) and the corresponding Keq were studied by ^1H NMR through exchanging of the urea with a set of bulky amines in d-chloroform. The equilibrium constant of the aryl urea bond increases as the bulkiness of the substitution on the amine decreases. […] The dissociation constant k−1 was measured by exchange study of the ureas with another amine and calculated through linear regression. Remarkably, the amine exchange of the tBEU could reach equilibrium within 20 minutes at room temperature in d-chloroform. The k−1 of tBEU with aryl substitution is two orders of magnitudes larger than the reported aliphatic urea (Table 1) and among the fastest dynamic chemistries reported so far. […] The substituent on the aryl group can remotely affect the HUB through electronic effects, thus offering an extra tunability on the Keq and k−1 of the bond, which is unprecedented in hindered urea chemistry. The large value of Keq also makes it possible to prepare large molecular weight aromatic hindered urea materials with quantitative conversion.
The dissociation constant (k−1) of corresponding hinder ureas were determined through exchange experiment. Briefly, a d-chloroform (550 μL) solution of tBEU (0.050 mmol, ˜12 mg) was mixed with N-methyl-t-butyl-amine (1 eq). Then the mixture was monitored with ^1H NMR. The ratio of the two ureas was quantified by integration of the methyl/methylene hydrogen adjacent to the nitrogen atom. Linear regression of ln
[formula] ˜t giving the slope as the dissociation constant (k−1).
The method for tBEU was used except that 10 equivalent t-butylamine or n-butyl amine was used.
The dynamic behavior of the aromatic urea was then investigated by exchanging the tBEU with methyl-t-butylamine and the relative concentration of all species were monitored by ^1H NMR. […] In contrast, the aliphatic tBEU requires several days to reach equilibrium at 37° C. Through linear regression of the exchange component, the dissociate rate of the ureas were determined to be 5-12 h^−1 at room temperature, which is two order of magnitude higher than the aliphatic counterpart. […] SeeYing, H.; Zhang, Y.; Cheng, J. Nat. Commun. 2014, 5, 3218, which is incorporated by reference herein in its entirety.

[2] = Equilibrium (binding) constant Keq of aryl hindered ureas by 1H NMR amine exchange in d-chloroform; type: physicochemical; settings: room temperature
Method: as §1
We designed a set of aryl ureas with distinguished electronic effect on the conjugated phenyl ring (Table 1) and the corresponding Keq were studied by ^1H NMR through exchanging of the urea with a set of bulky amines in d-chloroform. The equilibrium constant of the aryl urea bond increases as the bulkiness of the substitution on amine increases. […] The dissociation constant k−1 was measured by exchanging of the ureas with another amine and calculated through linear regression. […] In addition, the calculated k1 is larger than 10^5 M^−1·h^−1 indicating the urea formation can be completed within seconds upon mixing. […] The large value of Keq make it possible to prepare chemically stable aromatic hindered urea materials with quantitative conversion.
The binding constant (Keq) was measured through indirect method used previously. […] Briefly, the of Keq of the equilibrium was measured in d-chloroform and the Keq of each aryl urea was calculated accordingly. […]

[3] = HPLC analysis of Ph-tBEU hydrolysis kinetics in 1:1 DMSO-aqueous buffer at various pH; type: physicochemical
Method: FIGS. 1A to 1C depict the hydrolysis of phenyl-N-tetrabutyl-N-ethyl urea (Ph-tBEU) in 1:1 DMSO-aqueous buffer at various pH conditions at 37° C. as analyzed by HPLC. […] The dotted line marks the measured k−1 of the Ph-tBEU under the same condition through exchange with 10 equivalents of t-butyl amine.
The hydrolysis of aryl tBEU under different pH conditions was then studied in 1:1 DMSO-aqueous buffer solution at 23° C. […] Kinetic analysis of the hydrolytic kinetics confirmed that the overall urea degradation rate is determined by the urea dissociation and can be expressed as
HPLC Analysis of pH-tBEU Hydrolysis Kinetics in 50:50 DMSO-H2O at 37° C.
Ph-tBEU stock solution was prepared in DMSO as 2 mg/mL. The solution was diluted with 1:1 DMSO/buffer to 20 μg/mL ([…]) and incubated at 37° C. At specified time, the solution was analyzed by HPLC to quantify the remaining tBEU content by standard calibration curve (λabs=264 nm).
The standard sample of Ph-tBEU was prepared by diluting the stock solution with acetonitrile to a 2-fold serial dilution and analyzed instantly after preparation. The pH 1, 7, 10 buffers were prepared by adding acid/base to 1*PBS solution. pH 4 buffer was prepared by citric acid-Na2HPO4 (0.1 M). The pH of all the buffers were confirmed by pH meter prior to conducting the experiments.

[4] = cited from earlier work
[5] = aliphatic HUB, adapted from Ying et al. Nat. Commun. 2014; cited from earlier work

Keq [2] | pH dependence of observed hydrolysis constant kobs ([3]; pH ranging from 3-11) | Structure (SMILES) | k1 (calculated as Keq × k−1) [1] | k−1 (dissociation rate) [1] | apparent hydrolysis constant kobs ([3]; 23° C. as printed) | time for exchange to reach equilibrium ([4]; aliphatic tBEU, 37° C.) | k−1 (dissociation rate) ([4]; reported aliphatic urea) | Keq [5]
360000 M⁻¹ | independent of pH | CCN(C(=O)Nc1ccccc1)C(C)(C)C [compound 2, phenyl-N-tetrabutyl-N-ethyl urea] | 889 M⁻¹ s⁻¹ | 8.9 h⁻¹ | 0.17 h⁻¹ | – | – | –
6.8e+06 M⁻¹ | – | CCN(C(=O)Nc1ccc([N+](=O)[O-])cc1)C(C)(C)C [compound 3] | 10800 M⁻¹ s⁻¹ | 5.7 h⁻¹ | – | – | – | –
– | – | C=C(C)C(=O)OCCNC(=O)N(CC)C(C)(C)C [compound 4] | 9.17 M⁻¹ s⁻¹ | – | – | several days | 0.042 h⁻¹ | 790000 M⁻¹
81000 M⁻¹ | – | CCN(C(=O)Nc1ccc(OC)cc1)C(C)(C)C [compound 1] | 250 M⁻¹ s⁻¹ | 11.2 h⁻¹ | – | – | – | –
